# How the values were obtained:
# [1] = target: Human recombinant AChE (Homo sapiens, UniProt P22303); test: AChE inhibition, Ellman assay; type: biochemical
# [2] = target: BChE from equine serum (Equus caballus, UniProt P81908); test: BChE inhibition, Ellman assay; type: biochemical
# [3] = tested on: SH-SY5Y cells; test: SRB cytotoxicity assay; type: cell-based; conditions: Homo sapiens, 48 h, read-out: GI50 ± SD
# Sequence of Human recombinant AChE (P22303 32-614): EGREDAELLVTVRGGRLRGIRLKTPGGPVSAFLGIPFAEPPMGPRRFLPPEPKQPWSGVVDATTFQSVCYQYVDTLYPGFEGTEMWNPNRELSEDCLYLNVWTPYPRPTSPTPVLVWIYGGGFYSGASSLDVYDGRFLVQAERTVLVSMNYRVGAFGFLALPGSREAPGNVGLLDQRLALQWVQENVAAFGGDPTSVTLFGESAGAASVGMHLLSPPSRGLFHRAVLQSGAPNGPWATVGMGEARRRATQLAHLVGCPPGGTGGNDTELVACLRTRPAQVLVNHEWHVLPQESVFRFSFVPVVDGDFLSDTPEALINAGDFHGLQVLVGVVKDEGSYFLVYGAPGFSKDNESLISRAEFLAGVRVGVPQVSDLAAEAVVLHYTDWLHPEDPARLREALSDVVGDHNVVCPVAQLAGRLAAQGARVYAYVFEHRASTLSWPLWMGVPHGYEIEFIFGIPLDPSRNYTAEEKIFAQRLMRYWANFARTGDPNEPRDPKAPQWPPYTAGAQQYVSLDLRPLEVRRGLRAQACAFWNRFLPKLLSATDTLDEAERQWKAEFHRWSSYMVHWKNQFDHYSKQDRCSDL
# Sequence of BChE from equine serum (P81908 whole entry): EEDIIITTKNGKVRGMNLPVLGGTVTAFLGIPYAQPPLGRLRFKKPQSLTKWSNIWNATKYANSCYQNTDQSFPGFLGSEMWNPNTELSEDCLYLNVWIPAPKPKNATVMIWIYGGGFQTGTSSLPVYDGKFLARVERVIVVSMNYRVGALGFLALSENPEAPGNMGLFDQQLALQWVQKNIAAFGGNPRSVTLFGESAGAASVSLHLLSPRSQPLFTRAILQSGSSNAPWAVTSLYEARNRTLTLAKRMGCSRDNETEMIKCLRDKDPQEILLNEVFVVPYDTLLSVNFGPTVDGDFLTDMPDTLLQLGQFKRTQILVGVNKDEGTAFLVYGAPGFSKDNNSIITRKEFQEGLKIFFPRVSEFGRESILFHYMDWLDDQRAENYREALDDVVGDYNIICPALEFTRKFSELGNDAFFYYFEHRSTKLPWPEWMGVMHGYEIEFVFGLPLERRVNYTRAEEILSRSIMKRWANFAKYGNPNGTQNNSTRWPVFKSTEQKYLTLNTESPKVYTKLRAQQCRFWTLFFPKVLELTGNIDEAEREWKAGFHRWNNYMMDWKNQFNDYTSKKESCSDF
Structure (SMILES),IC50 [1],IC50 [2],GI50 [3],SI (selectivity index) ([1]; Selectivity index = BChE IC50/AChE IC50)
O=C1C=C(OCCCCCCn2cc(CNc3ccc4ncc(-c5ccccc5)nc4c3)nn2)C(=O)c2ccccc21 [Compound 7c],> 100 µM,> 100 µM,> 100 µM,
O=C1C=C(OCCCCCCCCn2cc(CNc3ccc4ncc(-c5ccccc5)nc4c3)nn2)C(=O)c2ccccc21 [Compound 7d],> 100 µM,4.4 ± 0.4 µM,> 100 µM,<0.044

# From paper PMC10500570 (ACS Omega, 2023)
